According to paper doi:10.1101/2020.06.11.145995v1 (biorxiv, 2020):
Where two headings read alike, the source gives them in different places. Blank lines part the entries; values can stand above or below the compound they belong to.

How the values were obtained:
Experiment in all cases: biochemical
[1] = target: STK33 (Homo sapiens, UniProt Q9BYT3)
[2] = target: ABL1(T315I)-nonphosphorylated (Homo sapiens, UniProt P00519, T315I)
[3] = target: ABL1(F317I)-nonphosphorylated (Homo sapiens, UniProt P00519, F317I)
[4] = target: ABL1(H396P)-phosphorylated (Homo sapiens, UniProt P00519, H396P)
[5] = target: ABL1(Y253F)-phosphorylated (Homo sapiens, UniProt P00519, Y253F)
[6] = target: ABL1-nonphosphorylated (Homo sapiens, UniProt P00519)
[7] = target: ABL1(Q252H)-nonphosphorylated (Homo sapiens, UniProt P00519, Q252H)
[8] = target: JAK2(JH1domain-catalytic) (Homo sapiens, UniProt O60674)
[9] = target: ABL1(M351T)-phosphorylated (Homo sapiens, UniProt P00519, M351T)
[10] = target: JAK3(JH1domain-catalytic) (Homo sapiens, UniProt P52333)
[11] = target: ABL1(F317L)-phosphorylated (Homo sapiens, UniProt P00519, F317L)
[12] = target: FLT3(R834Q) (Homo sapiens, UniProt P36888, R834Q)
[13] = target: MAP4K4 (Homo sapiens, UniProt O95819)
[14] = target: CSNK1D (Homo sapiens, UniProt P48730)
[15] = target: DAPK3 (Homo sapiens, UniProt O43293)
[16] = target: CSNK1A1 (Homo sapiens, UniProt P48729)
[17] = target: CIT (Homo sapiens, UniProt O14578)
[18] = target: CSNK1A1L (Homo sapiens, UniProt Q8N752)
[19] = target: MEK2 (Homo sapiens, UniProt P36507)
[20] = target: CAMKK1 (Homo sapiens, UniProt Q8N5S9)
[21] = target: IKK-epsilon (Homo sapiens, UniProt Q14164)
[22] = target: KIT(V559D) (Homo sapiens, UniProt P10721, V559D)
[23] = target: CAMK4 (Homo sapiens, UniProt Q16566)
[24] = target: AMPK-alpha2 (Homo sapiens, UniProt P54646)
[25] = target: GRK7 (Homo sapiens, UniProt Q8WTQ7)
[26] = target: EGFR(L861Q) (Homo sapiens, UniProt P00533, L861Q)
[27] = target: AMPK-alpha1 (Homo sapiens, UniProt Q13131)
[28] = target: GRK4 (Homo sapiens, UniProt P32298)
[29] = read-out: CPT-1-70-1 (1uM) % control
[30] = read-out: HYJ-2-002-1 (1uM) % control

Sequence of MEK2 (P36507 whole entry): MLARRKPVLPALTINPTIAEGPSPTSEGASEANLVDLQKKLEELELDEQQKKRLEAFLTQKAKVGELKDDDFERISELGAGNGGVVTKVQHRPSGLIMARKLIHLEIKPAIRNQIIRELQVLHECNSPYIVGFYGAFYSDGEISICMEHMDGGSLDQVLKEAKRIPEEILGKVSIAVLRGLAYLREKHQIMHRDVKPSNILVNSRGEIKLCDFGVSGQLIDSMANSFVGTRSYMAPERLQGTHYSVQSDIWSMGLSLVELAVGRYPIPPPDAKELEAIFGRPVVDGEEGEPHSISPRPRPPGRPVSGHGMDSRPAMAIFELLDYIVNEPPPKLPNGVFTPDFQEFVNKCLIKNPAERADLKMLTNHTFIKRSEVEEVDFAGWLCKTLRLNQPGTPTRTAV
Sequence of JAK3(JH1domain-catalytic) (P52333 whole entry): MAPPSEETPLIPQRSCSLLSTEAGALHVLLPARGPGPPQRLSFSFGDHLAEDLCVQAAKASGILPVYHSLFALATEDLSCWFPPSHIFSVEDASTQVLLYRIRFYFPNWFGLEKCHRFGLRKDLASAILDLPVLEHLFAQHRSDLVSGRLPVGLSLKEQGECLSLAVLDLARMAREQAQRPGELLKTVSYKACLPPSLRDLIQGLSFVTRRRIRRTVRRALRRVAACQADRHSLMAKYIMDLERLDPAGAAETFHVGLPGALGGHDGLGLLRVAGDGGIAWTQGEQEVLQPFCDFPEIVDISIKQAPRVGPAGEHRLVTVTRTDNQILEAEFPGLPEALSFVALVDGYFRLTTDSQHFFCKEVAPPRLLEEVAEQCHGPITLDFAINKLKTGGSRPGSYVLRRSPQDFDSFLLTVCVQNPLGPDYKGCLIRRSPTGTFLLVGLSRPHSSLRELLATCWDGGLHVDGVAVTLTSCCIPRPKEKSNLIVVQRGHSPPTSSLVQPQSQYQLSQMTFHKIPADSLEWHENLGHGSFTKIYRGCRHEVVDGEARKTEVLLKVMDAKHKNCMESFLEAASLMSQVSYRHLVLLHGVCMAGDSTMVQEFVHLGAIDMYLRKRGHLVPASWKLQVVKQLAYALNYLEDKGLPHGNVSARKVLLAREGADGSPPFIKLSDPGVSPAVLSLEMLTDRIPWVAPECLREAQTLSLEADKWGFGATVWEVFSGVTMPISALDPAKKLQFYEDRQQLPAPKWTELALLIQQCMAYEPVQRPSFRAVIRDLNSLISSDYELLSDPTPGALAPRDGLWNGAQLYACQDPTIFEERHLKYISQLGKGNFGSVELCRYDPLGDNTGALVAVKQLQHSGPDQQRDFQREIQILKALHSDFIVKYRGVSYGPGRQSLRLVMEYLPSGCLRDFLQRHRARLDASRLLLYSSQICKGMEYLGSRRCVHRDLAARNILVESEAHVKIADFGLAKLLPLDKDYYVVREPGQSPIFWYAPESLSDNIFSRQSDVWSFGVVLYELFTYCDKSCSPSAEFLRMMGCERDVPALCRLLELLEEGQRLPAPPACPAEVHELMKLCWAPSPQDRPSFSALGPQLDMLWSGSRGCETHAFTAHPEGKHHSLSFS
Sequence of IKK-epsilon (Q14164 whole entry): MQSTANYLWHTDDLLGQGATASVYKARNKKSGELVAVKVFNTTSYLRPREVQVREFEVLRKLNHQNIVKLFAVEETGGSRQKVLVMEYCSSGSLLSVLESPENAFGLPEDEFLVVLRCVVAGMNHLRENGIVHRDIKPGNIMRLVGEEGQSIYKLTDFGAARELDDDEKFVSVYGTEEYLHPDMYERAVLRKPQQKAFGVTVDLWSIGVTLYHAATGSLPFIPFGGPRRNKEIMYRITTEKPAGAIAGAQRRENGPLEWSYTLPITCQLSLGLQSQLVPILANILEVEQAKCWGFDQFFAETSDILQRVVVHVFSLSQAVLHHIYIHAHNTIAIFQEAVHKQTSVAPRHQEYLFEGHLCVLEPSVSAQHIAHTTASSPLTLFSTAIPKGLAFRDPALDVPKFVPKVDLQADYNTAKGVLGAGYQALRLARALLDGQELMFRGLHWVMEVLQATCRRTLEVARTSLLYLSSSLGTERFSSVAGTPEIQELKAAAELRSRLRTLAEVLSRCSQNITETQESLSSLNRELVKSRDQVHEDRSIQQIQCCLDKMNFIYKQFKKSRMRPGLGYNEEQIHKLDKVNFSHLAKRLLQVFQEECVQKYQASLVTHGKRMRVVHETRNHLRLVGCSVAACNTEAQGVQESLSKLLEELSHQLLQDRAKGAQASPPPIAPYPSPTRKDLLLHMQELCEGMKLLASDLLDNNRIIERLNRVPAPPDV
Sequence of STK33 (Q9BYT3 whole entry): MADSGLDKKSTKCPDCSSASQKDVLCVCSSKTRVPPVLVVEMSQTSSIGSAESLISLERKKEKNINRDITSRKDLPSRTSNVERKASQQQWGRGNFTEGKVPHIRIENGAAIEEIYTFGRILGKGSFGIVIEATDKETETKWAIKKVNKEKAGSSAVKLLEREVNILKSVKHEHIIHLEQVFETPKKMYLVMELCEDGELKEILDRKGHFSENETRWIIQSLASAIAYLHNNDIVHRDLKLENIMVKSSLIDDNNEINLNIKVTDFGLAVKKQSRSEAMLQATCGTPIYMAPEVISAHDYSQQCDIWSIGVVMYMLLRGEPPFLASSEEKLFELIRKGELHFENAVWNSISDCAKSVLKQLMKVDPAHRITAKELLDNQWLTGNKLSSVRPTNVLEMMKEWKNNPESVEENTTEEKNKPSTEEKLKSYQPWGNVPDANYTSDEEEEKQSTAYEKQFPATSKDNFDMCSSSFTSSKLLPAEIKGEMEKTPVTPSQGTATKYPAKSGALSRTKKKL
Sequence of DAPK3 (O43293 whole entry): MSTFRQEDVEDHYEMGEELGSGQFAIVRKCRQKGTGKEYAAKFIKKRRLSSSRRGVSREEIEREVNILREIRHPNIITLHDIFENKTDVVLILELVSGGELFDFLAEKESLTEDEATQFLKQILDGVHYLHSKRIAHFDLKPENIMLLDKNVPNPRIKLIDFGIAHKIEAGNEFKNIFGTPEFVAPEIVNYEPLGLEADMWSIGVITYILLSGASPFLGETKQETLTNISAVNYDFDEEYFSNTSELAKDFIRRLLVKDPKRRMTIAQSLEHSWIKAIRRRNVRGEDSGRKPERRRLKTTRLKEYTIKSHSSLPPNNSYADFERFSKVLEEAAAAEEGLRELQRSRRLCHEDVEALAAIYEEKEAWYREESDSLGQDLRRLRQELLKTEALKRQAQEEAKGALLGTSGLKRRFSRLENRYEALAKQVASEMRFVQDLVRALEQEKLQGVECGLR
Sequence of GRK7 (Q8WTQ7 whole entry): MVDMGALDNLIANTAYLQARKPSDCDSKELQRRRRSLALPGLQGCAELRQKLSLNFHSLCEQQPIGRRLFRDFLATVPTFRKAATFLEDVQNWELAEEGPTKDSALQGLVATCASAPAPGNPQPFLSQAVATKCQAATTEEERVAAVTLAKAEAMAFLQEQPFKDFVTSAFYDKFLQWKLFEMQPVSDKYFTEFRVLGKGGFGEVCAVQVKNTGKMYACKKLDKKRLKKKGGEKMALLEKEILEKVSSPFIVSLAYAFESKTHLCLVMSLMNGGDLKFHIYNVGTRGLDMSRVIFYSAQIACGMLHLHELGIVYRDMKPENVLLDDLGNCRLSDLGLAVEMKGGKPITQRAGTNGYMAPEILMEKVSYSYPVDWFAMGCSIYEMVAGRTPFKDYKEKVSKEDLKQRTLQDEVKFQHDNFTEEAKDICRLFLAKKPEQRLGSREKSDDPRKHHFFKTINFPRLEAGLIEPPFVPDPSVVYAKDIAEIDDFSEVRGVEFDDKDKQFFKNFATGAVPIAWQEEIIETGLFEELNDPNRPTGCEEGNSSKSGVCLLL
Sequence of MAP4K4 (O95819 whole entry): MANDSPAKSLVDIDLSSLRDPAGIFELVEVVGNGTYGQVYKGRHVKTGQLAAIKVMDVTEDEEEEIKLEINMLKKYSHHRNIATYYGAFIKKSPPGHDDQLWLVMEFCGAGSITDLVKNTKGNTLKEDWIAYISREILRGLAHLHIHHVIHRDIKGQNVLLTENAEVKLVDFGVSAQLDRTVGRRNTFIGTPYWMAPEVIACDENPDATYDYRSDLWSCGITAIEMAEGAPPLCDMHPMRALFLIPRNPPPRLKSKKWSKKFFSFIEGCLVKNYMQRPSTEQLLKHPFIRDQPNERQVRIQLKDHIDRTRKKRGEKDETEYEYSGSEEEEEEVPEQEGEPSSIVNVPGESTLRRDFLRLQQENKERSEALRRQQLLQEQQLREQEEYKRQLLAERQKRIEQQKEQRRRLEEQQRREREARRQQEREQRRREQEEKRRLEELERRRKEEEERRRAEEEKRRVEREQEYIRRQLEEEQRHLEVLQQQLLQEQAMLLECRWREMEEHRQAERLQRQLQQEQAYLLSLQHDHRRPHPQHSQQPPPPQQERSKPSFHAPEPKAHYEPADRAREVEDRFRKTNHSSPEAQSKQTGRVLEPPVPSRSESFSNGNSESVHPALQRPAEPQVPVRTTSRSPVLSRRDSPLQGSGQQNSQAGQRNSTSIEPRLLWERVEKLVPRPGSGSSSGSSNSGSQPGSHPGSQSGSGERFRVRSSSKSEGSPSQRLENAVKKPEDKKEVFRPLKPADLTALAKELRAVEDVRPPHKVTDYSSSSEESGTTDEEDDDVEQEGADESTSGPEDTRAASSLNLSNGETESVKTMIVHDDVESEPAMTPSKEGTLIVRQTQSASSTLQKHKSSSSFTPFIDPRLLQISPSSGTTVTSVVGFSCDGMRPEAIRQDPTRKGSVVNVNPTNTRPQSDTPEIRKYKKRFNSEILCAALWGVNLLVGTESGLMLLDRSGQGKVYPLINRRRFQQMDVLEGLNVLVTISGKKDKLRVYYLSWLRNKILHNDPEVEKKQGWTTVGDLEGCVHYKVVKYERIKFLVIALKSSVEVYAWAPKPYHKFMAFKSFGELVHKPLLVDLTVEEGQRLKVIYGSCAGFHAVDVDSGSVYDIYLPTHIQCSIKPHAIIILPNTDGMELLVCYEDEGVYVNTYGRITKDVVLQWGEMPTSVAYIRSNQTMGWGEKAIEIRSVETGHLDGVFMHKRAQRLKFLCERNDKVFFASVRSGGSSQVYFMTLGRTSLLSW

SMILES: CN1CCN(c2ccc(Nc3nc(Oc4ccc(NC(=O)CCl)cc4)c4cc[nH]c4n3)cc2)CC1 [CPT1-70-1]
- remaining activity at 1 µM ([1]; read-out: CPT-1-70-1 (1μM) % control): 10%
- remaining activity at 1 µM [2, 29]: 46%
- remaining activity at 1 µM [3, 29]: 100%
- remaining activity at 1 µM [4, 29]: 100%
- remaining activity at 1 µM [5, 29]: 100%
- remaining activity at 1 µM [6, 29]: 25%
- remaining activity at 1 µM [7, 29]: 52%
- remaining activity at 1 µM [8, 29]: 1.2%
- remaining activity at 1 µM [9, 29]: 86%
- remaining activity at 1 µM [10, 29]: 0%
- remaining activity at 1 µM [11, 29]: 99%
- remaining activity at 1 µM [12, 29]: 51%
- remaining activity at 1 µM [13, 29]: 49%
- remaining activity at 1 µM [14, 29]: 43%
- remaining activity at 1 µM [15, 29]: 59%
- remaining activity at 1 µM [16, 29]: 55%
- remaining activity at 1 µM [17, 29]: 26%
- remaining activity at 1 µM [18, 29]: 80%
- remaining activity at 1 µM [19, 29]: 19%
- remaining activity at 1 µM [20, 29]: 84%
- remaining activity at 1 µM [21, 29]: 100%
- remaining activity at 1 µM [22, 29]: 15%
- remaining activity at 1 µM [23, 29]: 100%
- remaining activity at 1 µM [24, 29]: 41%
- remaining activity at 1 µM [25, 29]: 100%
- remaining activity at 1 µM [26, 29]: 18%
- remaining activity at 1 µM [27, 29]: 32%
- remaining activity at 1 µM [28, 29]: 100%

- remaining activity at 1 µM ([1]; read-out: HYJ-2-002-1 (1μM) % control): 66%
- remaining activity at 1 µM [2, 30]: 9%
- remaining activity at 1 µM [3, 30]: 0%
- remaining activity at 1 µM [4, 30]: 0.1%
- remaining activity at 1 µM [5, 30]: 0.7%
- remaining activity at 1 µM [6, 30]: 0.05%
- remaining activity at 1 µM [7, 30]: 0.05%
- remaining activity at 1 µM [8, 30]: 57%
- remaining activity at 1 µM [9, 30]: 0.85%
- remaining activity at 1 µM [10, 30]: 2.4%
- remaining activity at 1 µM [11, 30]: 2%
- remaining activity at 1 µM [12, 30]: 44%
- remaining activity at 1 µM [13, 30]: 11%
- remaining activity at 1 µM [14, 30]: 73%
- remaining activity at 1 µM [15, 30]: 100%
- remaining activity at 1 µM [16, 30]: 100%
- remaining activity at 1 µM [17, 30]: 6.7%
- remaining activity at 1 µM [18, 30]: 100%
- remaining activity at 1 µM [19, 30]: 22%
- remaining activity at 1 µM [20, 30]: 100%
- remaining activity at 1 µM [21, 30]: 94%
- remaining activity at 1 µM [22, 30]: 0%
- remaining activity at 1 µM [23, 30]: 100%
- remaining activity at 1 µM [24, 30]: 100%
- remaining activity at 1 µM [25, 30]: 100%
- remaining activity at 1 µM [26, 30]: 0.85%
- remaining activity at 1 µM [27, 30]: 87%
- remaining activity at 1 µM [28, 30]: 100%
SMILES: CCN1CCN(Cc2ccc(NC(=O)c3ccc(C)c(CCc4cnc5[nH]ccc5c4OC)c3)cc2C(F)(F)F)CC1 [HYJ-2-002-1]
